Assays:
[1] = system: Rattus norvegicus; test: Antihypertensive activity in conscious spontaneously hypertensive rat (SHR), percent change in heart rate (beats/min) after 1 hr at 0.3 mg/kg peroral dose; format: functional; details: route oral
[2] = system: Rattus norvegicus; test: (§1) Antihypertensive activity in conscious spontaneously hypertensive rat (SHR), percent change in Systolic blood pressure (SBP) at 3 mg/kg peroral dose after 2 hr; format: functional; details: route oral
[3] = system: Rattus norvegicus; test: Antihypertensive activity in conscious spontaneously hypertensive rat (SHR), percent change in Systolic blood pressure (SBP) at 0.3 mg/kg peroral dose after 8 hr; format: functional; details: route oral
[4] = system: Mus musculus; test: Protection against mortality in pulmonary thromboembolism model in mice at 12 mg/kg; format: functional
[5] = organism: Homo sapiens; test: In vitro inhibition of ADP-induced aggregation of human PRP in the presence of pig aortal microsomes (PAM).; format: functional
[6] = system: Rattus norvegicus; test: Antihypertensive activity in conscious spontaneously hypertensive rat (SHR), percent change in heart rate (beats/min) after 2 hr at 3 mg/kg peroral dose; format: functional; details: route oral
[7] = system: Rattus norvegicus; test: Antihypertensive activity in conscious spontaneously hypertensive rat (SHR), percent change in Systolic blood pressure (SBP) at 1 mg/kg peroral dose after 2 hr; format: functional; details: route oral
[8] = system: Rattus norvegicus; test: Ex vivo inhibition of blood platelet aggregation in rats at 50 mg/kg peroral dose after 3 hr; format: functional; details: route oral
[9] = biological target: Phosphodiesterase 3 (Homo sapiens, UniProt Q14432+Q13370); test: Inhibition of human blood platelet c-AMP phosphodiesterase
[10] = system: Rattus norvegicus; test: (§2) Antihypertensive activity in conscious spontaneously hypertensive rat (SHR), percent change in Systolic blood pressure (SBP) at 0.3 mg/kg peroral dose after 12 hr; format: functional; details: route oral
[11] = system: Rattus norvegicus; test: Antihypertensive activity in conscious spontaneously hypertensive rat (SHR), percent change in heart rate (beats/min) after 4 hr at 1 mg/kg peroral dose; format: functional; details: route oral
[12] = system: Rattus norvegicus; test: as §1; format: functional; details: route oral; remark: listed apart in the source
[13] = system: Rattus norvegicus; test: Antihypertensive activity in conscious spontaneously hypertensive rat (SHR), percent change in Systolic blood pressure (SBP) at 3 mg/kg peroral dose after 12 hr; format: functional; details: route oral
[14] = organism: Homo sapiens; test: Inhibition of [14C]arachidonic acid induced platelet aggregation at 500 uM (Control TXB2 = 14.9+/-2.5); format: functional
[15] = organism: Homo sapiens; test: Ratio of IC50(w/oPAM)/IC50(w/PAM); format: functional
[16] = system: Rattus norvegicus; test: Antihypertensive activity in conscious spontaneously hypertensive rat (SHR), percent change in heart rate (beats/min) after 12 hr at 0.3 mg/kg peroral dose; format: functional; details: route oral
[17] = system: Rattus norvegicus; test: as §2; format: functional; details: route oral; remark: listed apart in the source
[18] = system: Rattus norvegicus; test: Antihypertensive activity in conscious spontaneously hypertensive rat (SHR), percent change in heart rate (beats/min) after 8 hr at 10 mg/kg peroral dose; format: functional; details: route oral
[19] = system: Rattus norvegicus; test: Antihypertensive activity in conscious spontaneously hypertensive rat (SHR), percent change in heart rate (beats/min) after 8 hr at 3 mg/kg peroral dose; format: functional; details: route oral
[20] = system: Rattus norvegicus; test: Ex vivo inhibition of blood platelet aggregation in rats at 50 mg/kg peroral dose 8 hr; format: functional; details: route oral
[21] = system: Rattus norvegicus; test: Antihypertensive activity in conscious spontaneously hypertensive rat (SHR), percent change in heart rate (beats/min) after 12 hr at 1 mg/kg peroral dose; format: functional; details: route oral
[22] = system: Mus musculus; test: Protection against mortality in pulmonary thromboembolism model in mice at 30 mg/kg; format: functional
[23] = organism: Homo sapiens; test: Ratio of IC50(PDE)/IC50(TXA2); format: functional
[24] = organism: Homo sapiens; test: Inhibition of [14C]arachidonic acid induced TXB2 formation at 5 uM (Control TXB2 = 14.9+/-2.5)
[25] = system: Mus musculus; test: Time course of protection against mortality in a pulmonary thromboembolism model in mice after -3 hr at 10 mg/kg; format: functional
[26] = system: Mus musculus; test: Protection against mortality in pulmonary thromboembolism model in mice at 6 mg/kg; format: functional
[27] = system: Rattus norvegicus; test: Antihypertensive activity in conscious spontaneously hypertensive rat (SHR), percent change in Systolic blood pressure (SBP) at 0.3 mg/kg peroral dose after 1 hr; format: functional; details: route oral
[28] = system: Mus musculus; test: Time course of protection against mortality in a pulmonary thromboembolism model in mice after -1 hr at 10 mg/kg; format: functional
[29] = system: Rattus norvegicus; test: Antihypertensive activity in conscious spontaneously hypertensive rat (SHR), percent change in Systolic blood pressure (SBP) at 1 mg/kg peroral dose after 1 hr; format: functional; details: route oral
[30] = system: Rattus norvegicus; test: Antihypertensive activity in conscious spontaneously hypertensive rat (SHR), percent change in heart rate (beats/min) after 4 hr at 3 mg/kg peroral dose; format: functional; details: route oral
[31] = system: Rattus norvegicus; test: Antihypertensive activity in conscious spontaneously hypertensive rat (SHR), percent change in Systolic blood pressure (SBP) at 1 mg/kg peroral dose after 12 hr; format: functional; details: route oral
[32] = system: Rattus norvegicus; test: Antihypertensive activity in conscious spontaneously hypertensive rat (SHR), percent change in heart rate (beats/min) after 1 hr at 3 mg/kg peroral dose; format: functional; details: route oral
[33] = system: Rattus norvegicus; test: Antihypertensive activity in conscious spontaneously hypertensive rat (SHR), percent change in Systolic blood pressure (SBP) at 3 mg/kg peroral dose after 8 hr; format: functional; details: route oral
[34] = system: Rattus norvegicus; test: Antihypertensive activity in conscious spontaneously hypertensive rat (SHR), percent change in heart rate (beats/min) after 4 hr at 10 mg/kg peroral dose; format: functional; details: route oral
[35] = system: Rattus norvegicus; test: Antihypertensive activity in conscious spontaneously hypertensive rat (SHR), percent change in heart rate (beats/min) after 1 hr at 1 mg/kg peroral dose; format: functional; details: route oral
[36] = system: Rattus norvegicus; test: Antihypertensive activity in conscious spontaneously hypertensive rat (SHR), percent change in heart rate (beats/min) after 2 hr at 10 mg/kg peroral dose; format: functional; details: route oral
[37] = organism: Homo sapiens; test: Inhibition of [14C]arachidonic acid induced platelet aggregation at 500 uM (Control 6-keto-PGF1-alpha = 1.45+/-0.6); format: functional
[38] = system: Mus musculus; test: Protection against mortality in pulmonary thromboembolism model in mice at 9 mg/kg; format: functional
[39] = system: Mus musculus; test: Time course of protection against mortality in a pulmonary thromboembolism model in mice after -7hr at 10 mg/kg; format: functional
[40] = system: Rattus norvegicus; test: Antihypertensive activity in conscious spontaneously hypertensive rat (SHR), percent change in heart rate (beats/min) after 4 hr at 0.3 mg/kg peroral dose; format: functional; details: route oral
[41] = system: Rattus norvegicus; test: Antihypertensive activity in conscious spontaneously hypertensive rat (SHR), percent change in Systolic blood pressure (SBP) at 0.3 mg/kg peroral dose after 4 hr; format: functional; details: route oral

In the case of `O=C1CCc2cc(/C=C/n3ccnc3)ccc2N1`, the “Change in heart rate” value [1] is reported as 3%, the “Change in systolic BP” value [2] is reported as -21% and the “Change in systolic BP” value [3] is reported as -5%. For the same compound, the survival at 12 mg/kg [4] was 70%, the IC50 [5] was 1200 nM and the “Change in heart rate” value [6] was 10%. The “Change in systolic BP” value [7] was -8%, the inhibition in vivo at 50 mg/kg [8] was 94.7% and the IC50 [9] was 6400 nM. For the same compound, the “Change in systolic BP” value [10] was -1%, the “Change in heart rate” value [11] was 7% and the “Change in systolic BP” value [12] was -40%. The “Change in systolic BP” value [13] was -3%, the inhibition at 500 µM [14] was 4.3% and the Ratio [15] was 4.7. For the same compound, the “Change in heart rate” value [16] was -8%, the “Change in systolic BP” value [17] was 1% and the “Change in heart rate” value [18] was 16%. The “Change in heart rate” value [19] was 21%, the inhibition in vivo at 50 mg/kg [20] was 96.5% and the “Change in heart rate” value [21] was 1%. It also gave a survival at 30 mg/kg [22] of 20%, a Ratio [23] of 5.3 and a TXB2 level at 5 µM [24] of 12.3%. The survival at 10 mg/kg [25] was 20%, the survival at 6 mg/kg [26] was 50% and the “Change in systolic BP” value [27] was -5%. The survival at 10 mg/kg [28] was 50%, the “Change in systolic BP” value [29] was -19% and the “Change in heart rate” value [30] was 20%. The “Change in systolic BP” value [31] was -3%, the “Change in heart rate” value [32] was -34% and the “Change in systolic BP” value [33] was -18%. The “Change in heart rate” value [34] was 25%, the “Change in heart rate” value [35] was 17% and the “Change in heart rate” value [36] was 19%. The inhibition at 500 µM [37] was 21.1%, the survival at 9 mg/kg [38] was 50% and the survival at 10 mg/kg [39] was 0%. The “Change in heart rate” value [40] was -4% and the “Change in systolic BP” value [41] was -1%.

From ChEMBL document CHEMBL1126161, “3,4-Dihydroquinolin-2(1H)-ones as combined inhibitors of thromboxane A2 synthase and cAMP phosphodiesterase” (J Med Chem, 1992)
